The text below walks through data of patent US20110166079A1, “METHODS OF TREATING CANCER WITH APOE PEPTIDES” (COGNOSCI, INC., priority 2008, published 2011).

The test system of one assay is Akt kinase. The experiment in a line: LPS-induced phosphorylation of Akt kinase in BV2 microglial cells (Western blot densitometry). The class given is cell-based, mouse. Particulars: 10 ng/mL LPS, 1 μM COG112, normalized to actin, FIG. 2C. How it is done: To determine if COG peptides could also suppress activation of the upstream Akt kinase, BV2 microglial cells were treated with 10 ng/mL LPS alone or in the presence of 1 μM COG112 (SEQ ID NO: 2) peptide. Cell lysates were run on 10% polyacrylamide gels and subsequently transferred to nitrocellulose membranes. Blots were probed with an anti-phospho-Akt antibody or an antibody to actin. Densitometry analysis of the western blots was conducted and the signals from phosphorylated Akt kinase were normalized to those from actin.
On the technique in general: A western blot detects proteins with antibodies after separation by electrophoresis.

Assay [1] deals with PP2A. The assay is described as follows: PP2A activity in K562 CML cells (immunoprecipitation / phosphate release). Particulars: COG112 0.5 μM or 1 μM, 24 hours, FIG. 8B. The class given is cell-based.
The target of assay [2] is T1, PP2A (Mus musculus, UniProt P63330).
T1 construct: cells were lysed and PP2A was immunoprecipitated by adding an antibody targeted to the catalytic C-subunit of PP2A; endogenous in cells; host or cells: mouse macrophagic RAW cells
T1 sequence (P63330 whole entry): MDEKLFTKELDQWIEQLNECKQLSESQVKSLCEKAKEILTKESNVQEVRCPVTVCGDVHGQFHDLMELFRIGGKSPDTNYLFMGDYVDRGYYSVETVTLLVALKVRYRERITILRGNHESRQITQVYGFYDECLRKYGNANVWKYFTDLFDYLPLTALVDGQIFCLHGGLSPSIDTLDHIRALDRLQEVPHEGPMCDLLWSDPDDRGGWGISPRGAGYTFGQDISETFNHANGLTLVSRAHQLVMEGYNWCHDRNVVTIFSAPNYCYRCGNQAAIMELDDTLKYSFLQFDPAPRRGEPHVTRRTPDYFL
The assay is described as follows: PP2A activity in RAW cells (immunoprecipitation / phosphate release). The class given is cell-based. The note with it: 30 minutes, 2 μM COG112, 10 nM okadaic acid, FIG. 3. Here is the method:
Mouse macrophagic RAW cells were incubated with either 2 μM COG112 (SEQ ID NO: 2), 10 nM okadaic acid (an inhibitor of PP2A), or okadaic acid and COG112. After 30 minutes, cells were lysed and PP2A was immunoprecipitated by adding an antibody targeted to the catalytic C-subunit of PP2A. Half of the immunoprecipitate was separated by SDS-PAGE, blotted on to nitrocellulose, and probed with an anti-PP2AC antibody. The remaining portion was assayed for activity by adding 125 μL assay cocktail containing a phospho-threonine substrate peptide to the immunoprecipitated enzyme. After incubating at 37° C. with shaking, a 25 μL aliquot was removed and added to an ammonium molybdate solution (Upstate) that chelates free phosphate and changes color upon chelate formation. Aliquots were removed at various time intervals and the amount of free phosphate released from the peptide was determined by comparison to a phosphate standard curve. The rate of phosphate release was determined by linear fit to the time course data and was normalized to the relative PP2A concentration. […] PP2A activity was reduced in the presence of okadaic acid alone as expected. […] Thus, the active pool of PP2A in a cell can be regulated by ApoE peptides.

In the next assay the test system is Eμ-TCL1 transgenic mice. The experiment in a line: CLL in Eμ-TCL1 transgenic mice treated with COG112. The class given is in vivo, mouse. The source says:
In the Eμ-TCL1 transgenic mouse model, the TCL1 gene is placed under control of a B-cell-specific IgVH promoter and IgH-Eμ enhancer. These mice develop normally into adulthood but later develop enlarged spleens, livers, and lymph nodes that are accompanied by high blood lymphocyte counts. The mice eventually die prematurely as the leukemic cells accumulate along with development of advanced lymphoadenopathy Importantly, the accumulated B-cells in these transgeneic TCL1 mice are G0-1 arrested and express CD19+/CD5+/IgM+ just as the human CLL cells (Bichi et al. (2002) Proc Natl Acad Sci USA, Vol. 99: 6955-6960). As further validation of these Eμ-TCL1 transgenic mice as an effective model of human CLL, CLL symptoms in the TCL1 transgenic mice improve following administration of fludarabine, a clinically used anti-CLL therapeutic. […] The effect of COG112 on CLL cell production and life expectancy in the Eμ-TCL1 transgenic mouse model of CLL is evaluated.
Animals (n=6) are treated with either 10 mg/kg of COG112 or a vehicle control daily by subcutaneous injection. After 15 days of treatment, blood is collected by retro-orbital bleeds and white bloods cells quantitated. White-blood cell counts are expected to be reduced in COG112-treated animals relative to the vehicle controls.
At the initiation of treatment, blood is drawn to determine baseline CD5+/CD19+ CLL cell counts and groups of animals (n=20) are treated with a vehicle control (lactated Ringer's solution) or COG112 at doses of 4.0, 1.0, or 0.25 mg/kg. COG112 or the vehicle control is delivered by intraperitoneal injection at a volume of 10 mL/kg. Animals receive injections daily Monday through Friday so that 5 doses are administered per week for 5 weeks (35 days of total treatment). Disease course is monitored by survival, total blood leukocyte and lymphocyte count, and CD19+/CD5+ cell count weekly.
Blood is collected from each mouse on a weekly basis by retro-orbital bleeds for determination of total blood leukocyte and lymphocyte counts as well as CD19+/CD5+ cell counts to assess the leukemia burden. After 5 weeks (35 days of treatment), mice are euthanized and the post treatment leukemia burden is measured by cell counting, spleen weight, and histological analysis of bone marrow, spleen, liver, and lymph nodes.

The next assay deals with BCR/ABL fusion protein. The experiment in a line: Phospho-BCR/ABL Western blot in K562 cells. It is filed as cell-based. The note with it: COG112 0.5 or 1 μM, 24 hours, FIG. 8A. How it is done: As discussed above, constitutive activation of the BCR/ABL fusion protein produced by the Philadelphia chromosome (e.g. product of the t(9;22)(q34;q11) translocation) is the primary causative factor in the persistent signaling that leads to unrestrained cell proliferation and survival in CML. […] Cell lysates were prepared and subject to Western blot analysis to detect activated phospho-BCR/ABL.

In another assay the test system is B-CLL cells. The assay is described as follows: Annexin V / propidium iodide apoptosis assay on B-CLL cells. The class given is cell-based, human. How it is done: In a first series of experiments, apoptosis assays using Annexin V staining were performed on freshly isolated B-CLL cells to determine if COG112 could reverse the anti-apoptotic state in these cells and induce apoptosis. […] Apoptosis was measured using the Annexin V-FITC apoptosis detection kit (BD Biosciences-Pharmingen). COG-treated and untreated cells were Annexin V-FITC- and propidium iodide-stained for 15 minutes in 1× binding buffer (10 mM HEPES, pH 7.4, 140 mM NaCl, 2.5 mM CaCl2) and analyzed by flow cytometry. One aliquot of cells was treated with 100 μg/mL etoposide as a positive control for apoptosis induction.

Assay [3] deals with BCR/Abl+ K562 CML cell line. The experiment in a line: Growth of BCR/Abl+ K562 CML cells (trypan blue counting). It is filed as cell-based. Here is the method: Cells (20 mL) were seeded in a T-75 flask at a concentration of 0.25×10^6 cells/mL. Each day after seeding, 0.20 mL of cell suspension was removed and centrifuged to collect cells. The cell pellet was resuspended in 500 μL of serum free media and 100 μL of trypan blue stain was added and incubated for 5 minutes before counting the […] cells with a hemacytometer.

The mark [4] stands for this setting: 4.0, 1.0 or 0.25 mg/kg intraperitoneal, 5 weeks, versus vehicle.

With “Ac-RQIKIWFQNRRMKWKKCLRVRLASHLRKLRKRLL-NH2 (N-terminus and C-terminus assumed) [COG112]”, in the assay on Akt kinase, the “LPS-induced phosphorylation of the Akt kinase” value was “significantly decreased”. In addition, the PP2A activity entry in the assay with PP2A [1] is listed as “robust activation”. Also, on PP2A [2], the “PP2A activity (rate of phosphate release)” value is listed as “increased”. Moreover, the white-blood cell counts entry with Eμ-TCL1 transgenic mice (10 mg/kg daily subcutaneous, 15 days, relative to vehicle) was “reduced”. Moreover, in the assay with Eμ-TCL1 transgenic mice (setting [4]), the “CD19+/CD5+ cell counts” value is recorded as “dose-dependent reduction”, the “CLL burden by histological analysis” value is reported as “dose-dependent reduction”, the cumulative survival entry is given as “dose-dependent increase” and the spleen weight entry is “dose-dependent reduction”. In addition, the “level of phosphorylated BCR/ABL” value in the assay with BCR/ABL fusion protein is given as “dose-dependent reduction”. Also, in the assay on B-CLL cells (B-CLL cells, Annexin V), the “ED50 for induction of apoptosis” value is reported as “closely mirrored the ED50 for cytotoxicity”. In addition, in the assay on B-CLL cells (increasing concentrations of COG112, flow cytometry, FIG. 5), the “apoptosis (Annexin-V+/propidium iodide+ cells)” value is reported as “dose-dependent increase in apoptosis”. The “K562 cell growth at reduced concentrations” value in assay [3] (1 μM COG112, 75 nM Imatinib, alone or combined, FIG. 7B) is reported as “suboptimal inhibition”. For the same substance, the K562 cell growth result in assay [3] (dose response of COG112, Imatinib 1 μM positive control, FIG. 7A) is recorded as “dose dependent inhibition”.
